Source: ChEMBL document CHEMBL5303766, “Data for DCP probe FHT-2344” (2022)
Activity calls are given as the source filed them. No cut-off for these calls is given here.

Key:
[1] = target: Serine/threonine-protein kinase 38-like (Homo sapiens) (UniProt Q9Y2H1); experiment: STK38L SGC Tm panel (DSF); settings: for ΔTm: Compound concentration 10.0 uM
[2] = target: SWI/SNF-related matrix-associated actin-dependent regulator of chromatin subfamily A member 2 (Homo sapiens, UniProt P51531); experiment: Luciferase reporter assay: SMARCA2 transcriptional activity in a SMARCA4-mutant cell line; format: functional
[3] = target: Alpha-2C adrenergic receptor (Homo sapiens) (UniProt P18825); settings: Compound concentration 10.0 uM
[4] = target: Homeodomain-interacting protein kinase 2 (Homo sapiens) (UniProt Q9H2X6); experiment: HIPK2 SGC Tm panel (DSF); settings: for ΔTm: Compound concentration 10.0 uM
[5] = target: T1, Ephrin type-B receptor 3 (Homo sapiens) (UniProt P54753); experiment: EPHB3 SGC Tm panel (DSF); settings: for ΔTm: Compound concentration 10.0 uM
T1 sequence (whole entry): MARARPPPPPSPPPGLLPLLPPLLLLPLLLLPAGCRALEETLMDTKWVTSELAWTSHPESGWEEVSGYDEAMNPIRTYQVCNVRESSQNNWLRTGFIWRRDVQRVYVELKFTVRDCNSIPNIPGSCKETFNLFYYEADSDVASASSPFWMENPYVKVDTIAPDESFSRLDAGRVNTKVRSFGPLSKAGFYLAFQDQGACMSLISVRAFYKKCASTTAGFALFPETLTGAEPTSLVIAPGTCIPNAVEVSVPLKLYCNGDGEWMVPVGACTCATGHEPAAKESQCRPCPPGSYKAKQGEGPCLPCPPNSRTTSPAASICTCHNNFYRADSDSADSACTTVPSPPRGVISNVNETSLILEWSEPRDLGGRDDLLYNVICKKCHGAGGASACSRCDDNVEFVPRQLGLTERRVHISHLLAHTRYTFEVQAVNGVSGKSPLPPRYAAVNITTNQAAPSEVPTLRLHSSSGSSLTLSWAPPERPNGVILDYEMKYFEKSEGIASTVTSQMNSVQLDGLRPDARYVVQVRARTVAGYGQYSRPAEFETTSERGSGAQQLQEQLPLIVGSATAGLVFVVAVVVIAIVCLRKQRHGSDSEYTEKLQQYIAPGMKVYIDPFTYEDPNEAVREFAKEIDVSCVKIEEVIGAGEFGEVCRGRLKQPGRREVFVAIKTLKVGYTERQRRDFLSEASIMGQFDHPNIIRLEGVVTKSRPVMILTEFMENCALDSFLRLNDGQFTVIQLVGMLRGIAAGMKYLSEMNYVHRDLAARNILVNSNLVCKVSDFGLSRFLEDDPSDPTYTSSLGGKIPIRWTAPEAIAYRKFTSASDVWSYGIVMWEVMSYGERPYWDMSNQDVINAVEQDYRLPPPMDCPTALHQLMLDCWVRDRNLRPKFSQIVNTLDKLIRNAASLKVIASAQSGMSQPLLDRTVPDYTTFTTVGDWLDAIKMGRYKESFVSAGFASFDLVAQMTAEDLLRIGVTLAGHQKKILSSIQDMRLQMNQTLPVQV

[6] = target: Bromodomain-containing protein 4 (Homo sapiens) (UniProt O60885); experiment: BRD4 SGC Tm panel (DSF); settings: for ΔTm: Compound concentration 10.0 uM
Peregrin (Homo sapiens) = target: T2, Peregrin (Homo sapiens) (UniProt P55201); experiment: BRPF1 SGC Tm panel (DSF); settings: for ΔTm: Compound concentration 10.0 uM
T2 sequence (whole entry): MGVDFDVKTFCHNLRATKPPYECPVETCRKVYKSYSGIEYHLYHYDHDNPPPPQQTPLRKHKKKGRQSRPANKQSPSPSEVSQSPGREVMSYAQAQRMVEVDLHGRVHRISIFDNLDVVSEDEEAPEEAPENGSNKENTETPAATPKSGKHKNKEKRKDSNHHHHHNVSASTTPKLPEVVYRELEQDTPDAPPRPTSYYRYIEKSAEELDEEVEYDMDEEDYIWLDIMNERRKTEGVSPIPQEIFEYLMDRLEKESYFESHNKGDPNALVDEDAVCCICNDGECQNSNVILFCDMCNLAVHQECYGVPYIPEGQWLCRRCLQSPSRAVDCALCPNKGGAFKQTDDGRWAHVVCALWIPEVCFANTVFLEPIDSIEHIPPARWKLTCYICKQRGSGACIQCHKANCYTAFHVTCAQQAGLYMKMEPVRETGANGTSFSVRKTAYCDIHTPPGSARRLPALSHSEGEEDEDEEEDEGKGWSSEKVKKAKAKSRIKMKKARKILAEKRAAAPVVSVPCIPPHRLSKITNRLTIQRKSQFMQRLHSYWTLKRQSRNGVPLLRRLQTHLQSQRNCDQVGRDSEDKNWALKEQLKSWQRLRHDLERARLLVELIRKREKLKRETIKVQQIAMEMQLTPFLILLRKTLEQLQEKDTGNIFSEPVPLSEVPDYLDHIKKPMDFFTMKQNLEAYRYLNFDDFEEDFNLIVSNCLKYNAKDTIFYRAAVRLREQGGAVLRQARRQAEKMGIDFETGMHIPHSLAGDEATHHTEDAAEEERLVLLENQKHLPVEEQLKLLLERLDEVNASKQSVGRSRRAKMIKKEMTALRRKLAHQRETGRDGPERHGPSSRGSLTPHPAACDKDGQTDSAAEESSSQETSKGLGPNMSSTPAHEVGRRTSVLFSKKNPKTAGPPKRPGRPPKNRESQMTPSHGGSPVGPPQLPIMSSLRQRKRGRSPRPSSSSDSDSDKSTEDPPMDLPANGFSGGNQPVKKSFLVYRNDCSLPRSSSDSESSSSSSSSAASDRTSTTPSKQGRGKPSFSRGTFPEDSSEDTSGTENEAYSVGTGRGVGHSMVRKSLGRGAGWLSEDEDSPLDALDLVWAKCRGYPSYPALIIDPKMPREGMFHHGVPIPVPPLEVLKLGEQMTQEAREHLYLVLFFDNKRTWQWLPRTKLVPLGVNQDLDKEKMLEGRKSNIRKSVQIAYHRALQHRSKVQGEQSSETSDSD

[7] = target: Sigma intracellular receptor 2 (Homo sapiens) (UniProt Q5BJF2); settings: Compound concentration 10.0 uM
[8] = target: Aurora kinase B (Homo sapiens) (UniProt Q96GD4); experiment: AURKB SGC Tm panel (DSF); settings: for ΔTm: Compound concentration 10.0 uM
Aurora kinase B (Homo sapiens), sequence (Q96GD4 whole entry): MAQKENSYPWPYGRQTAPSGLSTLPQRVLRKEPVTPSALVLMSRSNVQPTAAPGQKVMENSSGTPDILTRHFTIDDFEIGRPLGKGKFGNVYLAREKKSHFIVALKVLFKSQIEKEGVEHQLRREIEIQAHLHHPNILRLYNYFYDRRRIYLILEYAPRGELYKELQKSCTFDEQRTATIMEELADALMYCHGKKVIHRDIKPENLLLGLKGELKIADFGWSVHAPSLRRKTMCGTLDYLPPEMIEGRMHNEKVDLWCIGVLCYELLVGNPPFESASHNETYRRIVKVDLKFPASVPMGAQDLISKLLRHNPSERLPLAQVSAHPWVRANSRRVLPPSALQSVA

Homeodomain-interacting protein kinase 2 (Homo sapiens), sequence (Q9H2X6 whole entry, looked up): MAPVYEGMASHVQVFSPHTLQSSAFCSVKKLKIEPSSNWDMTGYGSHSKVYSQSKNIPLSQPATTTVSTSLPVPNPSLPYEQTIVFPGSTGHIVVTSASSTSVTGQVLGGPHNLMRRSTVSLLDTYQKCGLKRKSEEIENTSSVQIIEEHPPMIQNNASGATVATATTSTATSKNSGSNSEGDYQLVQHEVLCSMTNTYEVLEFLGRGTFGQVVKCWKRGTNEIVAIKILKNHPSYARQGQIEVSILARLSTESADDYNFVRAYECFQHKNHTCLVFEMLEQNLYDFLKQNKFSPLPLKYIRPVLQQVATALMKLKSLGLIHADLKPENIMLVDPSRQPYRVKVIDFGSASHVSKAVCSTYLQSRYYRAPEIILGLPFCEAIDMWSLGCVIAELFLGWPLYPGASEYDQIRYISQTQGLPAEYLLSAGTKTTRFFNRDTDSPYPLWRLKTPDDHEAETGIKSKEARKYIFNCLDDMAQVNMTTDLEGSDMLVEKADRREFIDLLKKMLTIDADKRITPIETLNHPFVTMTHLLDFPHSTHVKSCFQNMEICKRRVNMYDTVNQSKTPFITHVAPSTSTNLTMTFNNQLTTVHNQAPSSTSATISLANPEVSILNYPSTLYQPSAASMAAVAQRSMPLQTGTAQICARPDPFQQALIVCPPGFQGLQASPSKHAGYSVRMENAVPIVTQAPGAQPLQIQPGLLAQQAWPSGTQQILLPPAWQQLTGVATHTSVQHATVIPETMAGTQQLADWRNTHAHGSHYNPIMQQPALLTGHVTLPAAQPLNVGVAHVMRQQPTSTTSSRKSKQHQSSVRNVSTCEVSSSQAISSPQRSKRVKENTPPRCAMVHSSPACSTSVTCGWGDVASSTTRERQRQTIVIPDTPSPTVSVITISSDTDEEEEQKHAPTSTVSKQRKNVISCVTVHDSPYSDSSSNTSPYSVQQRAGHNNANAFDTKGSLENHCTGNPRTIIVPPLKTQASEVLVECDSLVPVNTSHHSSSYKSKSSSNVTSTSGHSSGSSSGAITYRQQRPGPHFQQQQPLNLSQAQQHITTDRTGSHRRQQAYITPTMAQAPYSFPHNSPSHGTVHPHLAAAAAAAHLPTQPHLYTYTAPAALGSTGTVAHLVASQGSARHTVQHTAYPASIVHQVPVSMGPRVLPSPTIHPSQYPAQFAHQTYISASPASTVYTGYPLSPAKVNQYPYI
Serine/threonine-protein kinase 38-like (Homo sapiens), sequence (Q9Y2H1 2-464 limits assumed): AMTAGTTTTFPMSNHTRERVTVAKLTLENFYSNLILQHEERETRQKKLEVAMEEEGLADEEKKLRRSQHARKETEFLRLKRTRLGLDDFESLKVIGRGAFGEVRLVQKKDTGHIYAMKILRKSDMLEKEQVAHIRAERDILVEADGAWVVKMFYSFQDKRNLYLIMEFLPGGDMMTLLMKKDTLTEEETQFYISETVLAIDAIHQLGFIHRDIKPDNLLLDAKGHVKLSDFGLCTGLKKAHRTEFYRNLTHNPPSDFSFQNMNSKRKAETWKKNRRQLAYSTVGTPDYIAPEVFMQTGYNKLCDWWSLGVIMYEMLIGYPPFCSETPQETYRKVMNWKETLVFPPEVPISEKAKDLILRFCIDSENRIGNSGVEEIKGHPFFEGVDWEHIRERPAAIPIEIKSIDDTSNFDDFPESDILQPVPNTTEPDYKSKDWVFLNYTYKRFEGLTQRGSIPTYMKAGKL
Alpha-2C adrenergic receptor (Homo sapiens), sequence (P18825 whole entry): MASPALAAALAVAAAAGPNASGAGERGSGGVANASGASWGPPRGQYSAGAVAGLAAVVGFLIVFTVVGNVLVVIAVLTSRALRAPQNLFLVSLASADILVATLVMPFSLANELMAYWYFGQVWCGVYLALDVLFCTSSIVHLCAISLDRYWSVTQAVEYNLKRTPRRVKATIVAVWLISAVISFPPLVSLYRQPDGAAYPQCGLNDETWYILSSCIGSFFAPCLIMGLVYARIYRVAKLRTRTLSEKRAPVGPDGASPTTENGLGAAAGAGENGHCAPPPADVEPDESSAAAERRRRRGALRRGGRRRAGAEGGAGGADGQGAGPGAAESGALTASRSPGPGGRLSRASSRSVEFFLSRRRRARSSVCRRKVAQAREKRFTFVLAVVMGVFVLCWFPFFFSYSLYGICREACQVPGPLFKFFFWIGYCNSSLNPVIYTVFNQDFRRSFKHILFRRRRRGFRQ
Sigma intracellular receptor 2 (Homo sapiens), sequence (Q5BJF2 whole entry): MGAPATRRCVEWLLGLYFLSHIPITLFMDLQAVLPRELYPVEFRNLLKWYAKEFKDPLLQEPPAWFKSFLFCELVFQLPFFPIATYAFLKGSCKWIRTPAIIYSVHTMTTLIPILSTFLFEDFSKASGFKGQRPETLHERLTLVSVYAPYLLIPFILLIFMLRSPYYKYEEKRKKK
SWI/SNF-related matrix-associated actin-dependent regulator of chromatin subfamily A member 2, sequence (P51531 whole entry, looked up, change not shown): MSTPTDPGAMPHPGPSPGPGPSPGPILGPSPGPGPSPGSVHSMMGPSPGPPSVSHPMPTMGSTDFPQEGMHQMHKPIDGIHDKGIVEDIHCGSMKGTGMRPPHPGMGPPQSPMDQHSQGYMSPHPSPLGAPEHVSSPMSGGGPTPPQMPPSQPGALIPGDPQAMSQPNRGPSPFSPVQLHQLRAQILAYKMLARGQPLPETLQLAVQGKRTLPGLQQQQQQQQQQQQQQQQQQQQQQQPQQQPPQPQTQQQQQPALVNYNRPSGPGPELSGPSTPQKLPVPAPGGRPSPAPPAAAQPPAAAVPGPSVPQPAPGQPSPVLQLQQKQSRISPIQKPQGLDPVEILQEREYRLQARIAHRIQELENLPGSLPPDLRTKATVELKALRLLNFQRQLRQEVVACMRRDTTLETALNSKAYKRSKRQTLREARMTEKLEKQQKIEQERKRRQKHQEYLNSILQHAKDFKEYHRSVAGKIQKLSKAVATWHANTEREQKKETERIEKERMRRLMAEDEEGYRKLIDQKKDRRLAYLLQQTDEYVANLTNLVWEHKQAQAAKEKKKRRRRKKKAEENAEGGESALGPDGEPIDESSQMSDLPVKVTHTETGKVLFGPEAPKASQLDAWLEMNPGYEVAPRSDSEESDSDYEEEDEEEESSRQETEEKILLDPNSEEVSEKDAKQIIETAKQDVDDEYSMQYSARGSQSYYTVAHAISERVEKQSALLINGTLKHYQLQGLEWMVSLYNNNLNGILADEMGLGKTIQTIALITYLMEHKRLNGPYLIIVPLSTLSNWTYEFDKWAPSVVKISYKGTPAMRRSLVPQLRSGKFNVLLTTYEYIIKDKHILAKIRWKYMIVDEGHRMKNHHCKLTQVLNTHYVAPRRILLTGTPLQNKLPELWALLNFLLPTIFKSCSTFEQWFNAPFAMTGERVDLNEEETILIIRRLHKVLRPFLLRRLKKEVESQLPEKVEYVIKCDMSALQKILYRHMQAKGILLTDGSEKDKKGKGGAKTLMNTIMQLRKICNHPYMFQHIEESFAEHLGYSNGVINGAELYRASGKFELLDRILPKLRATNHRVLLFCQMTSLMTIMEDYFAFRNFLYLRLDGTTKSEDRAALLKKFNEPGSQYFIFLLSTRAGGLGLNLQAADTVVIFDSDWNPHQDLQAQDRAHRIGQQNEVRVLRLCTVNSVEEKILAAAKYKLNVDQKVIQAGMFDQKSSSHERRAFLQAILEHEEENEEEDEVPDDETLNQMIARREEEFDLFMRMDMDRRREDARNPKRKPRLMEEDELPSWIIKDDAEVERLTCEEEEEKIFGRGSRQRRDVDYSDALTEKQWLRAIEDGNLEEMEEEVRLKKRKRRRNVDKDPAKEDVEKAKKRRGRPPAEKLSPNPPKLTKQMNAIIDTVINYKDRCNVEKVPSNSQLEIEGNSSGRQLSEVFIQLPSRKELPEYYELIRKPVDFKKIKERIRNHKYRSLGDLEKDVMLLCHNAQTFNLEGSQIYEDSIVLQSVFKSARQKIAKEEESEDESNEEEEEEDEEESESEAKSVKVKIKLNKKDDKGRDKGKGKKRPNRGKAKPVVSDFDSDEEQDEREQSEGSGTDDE

Row | delta Tm Staurosporine positive control [1] | ΔTm [1] | IC50 [2] | inhibition [3] [%] | delta Tm Staurosporine positive control [4] | ΔTm [4] | delta Tm Staurosporine positive control [5] | ΔTm [5] | delta Tm Staurosporine positive control [6] | ΔTm [6] | delta Tm Staurosporine positive control (Peregrin (Homo sapiens)) | ΔTm (Peregrin (Homo sapiens)) | inhibition [7] [%] | delta Tm Staurosporine positive control [8] | ΔTm [8] | Structure (SMILES)
1 | 10.8 | 0.237 | 4.35 µM (not active) | 11.2 | 6.38 | 0.207 | 7.3 | -0.415 | 1.03 | -0.303 | -0.0506 | -1.18 | 2.43 | 13.6 | 0.802 | C[C@H](NC(=O)c1cn(C2(C#N)CC2)cn1)C(=O)Nc1nc(-c2cccc(-c3ccn(C)n3)c2)cs1
2 | 10.8 | 0.451 | 0.0298 µM (active) | 10.2 | 6.38 | 0.234 | 7.3 | -0.288 | 1.03 | -0.843 | -0.0506 | -1.23 | 5.91 | 13.6 | 1.29 | COC[C@H](NC(=O)c1ccn(S(C)(=O)=O)c1)C(=O)Nc1nc(-c2cccc(-c3ccn(C)n3)c2)cs1
